In US8058284B2, “[4-(6-halo-7-substituted-2,4-dioxo-1,4-dihydro-2H-quinazolin-3-yl)-phenyl]-5-chloro-thiophen-2-yl-sulfonylureas and forms and methods related thereto” (Portola Pharmaceuticals, Inc., priority 2005, dated 2011):
Read-outs that look alike come from different tables or passages of the source.

Legend:
[1] = target: T1, P2Y12 receptor on platelets (Homo sapiens, UniProt Q9H244); test: platelet ADP receptor binding assay (ARB): inhibition of [3H]2-MeS-ADP binding to platelets; conditions: apyrase-washed human platelets
T1 construct: endogenous in cells; host or cells: human platelets, apyrase-washed: outdated from hospital blood banks, or fresh
Method: 1. The Ability of Candidate Molecules to Inhibit the Binding of [3H]2-MeS-ADP to the P2Y12 Receptor on Platelets was Determined Using a Radioligand Binding Assay.
Utilizing this assay the potency of inhibition of such compounds with respect to [^3H]2-MeS-ADP binding to whole platelets is determined. Under the conditions described in II (3) below, the binding of [^3H]2-MeS-ADP is solely due to the interaction of this ligand with the P2Y12 receptor, in that all the specific binding measured in this assay is compatible with a P2Y12 antagonist (i.e., the specific binding is reduced to background levels by competition with an excess of P2Y12 antagonist, with no competition of binding when a P2Y1 antagonist is pre-incubated with the platelet preparation). […]
A platelet ADP receptor binding assay (ARB) using the tritiated potent agonist ligand [^3H]2-MeS-ADP (Jantzen, H. M. et al. (1999) Thromb. Hemost. 81:111-117) has been adapted to the 96-well microtiter format. […] Total binding is determined in the absence of test compounds. […] The platelet-bound radioactivity on the filtermats is determined in a scintillation counter (Microbeta 1450, Wallac Inc., Gaithersburg, Md.). Specific binding is determined by subtraction of non-specific binding from total binding, and specific binding in the presence of test compounds is expressed as % of specific binding in the absence of test compound dilutions. […]

[2] = system: ADP-induced human platelet aggregation (human platelet-rich plasma); test: inhibition of ADP-mediated platelet aggregation in platelet-rich plasma (PRP assay); assay type: cell-based
Method: Platelet-rich plasma (PRP) is prepared by centrifugation of whole blood at 160×g for 20 minutes at room temperature. […] PPP is prepared by centrifugation of the remaining blood sample (after removal of PRP) for 20 minutes at 800×g. This preparation of PRP can subsequently be used for aggregation assays in either a 96-well plate or standard cuvette aggregometry.
J. Clin. Pathol. […] All steps are performed at room temperature. […] The plates are then agitated for 5 min on a microtiter plate shaker and the 5 minute reading is obtained in the plate reader. […] IC50s were derived by non-linear regression analysis.

T1 sequence (Q9H244 whole entry): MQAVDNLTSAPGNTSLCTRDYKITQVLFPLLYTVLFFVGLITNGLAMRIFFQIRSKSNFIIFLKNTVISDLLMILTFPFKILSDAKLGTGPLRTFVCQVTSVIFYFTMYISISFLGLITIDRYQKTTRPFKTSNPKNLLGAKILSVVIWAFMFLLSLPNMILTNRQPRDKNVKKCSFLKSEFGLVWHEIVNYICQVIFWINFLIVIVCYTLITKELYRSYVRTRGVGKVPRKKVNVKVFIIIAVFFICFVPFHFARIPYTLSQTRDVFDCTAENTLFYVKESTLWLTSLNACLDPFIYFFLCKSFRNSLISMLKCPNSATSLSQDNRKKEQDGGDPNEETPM

IC50 [2] | SMILES | IC50 [1] | IC50 ([2]; Platelet)
– | CNc1cc2[nH]c(=O)n(-c3ccc(NC(=O)NS(=O)(=O)c4ccc(Cl)s4)cc3)c(=O)c2cc1F [Example 2] | < 0.05 µM | < 10 µM
10 to 30 µM | CNc1cc2[nH]c(=O)n(-c3ccc(NC(=O)NS(=O)(=O)c4ccc(Cl)s4)cc3)c(=O)c2cc1Cl [Example 3, [4-(6-chloro-7-methylamino-2,4-dioxo-1,4-dihydro-2H-quinazolin-3-yl)-phenyl]-5-chloro-thiophen-2-yl-sulfonylurea] | 0.05 to 0.5 µM | –
